pIC50, pKd: −log10 of the molar value. Values after ≈ are worked out from the molar mass of the structure shown.
Assays:
[1] = target: Bromodomain-containing protein 4 (Homo sapiens, UniProt O60885); experiment: Inhibition of BRD4 bromodomain 1 (unknown origin) by TR-FRET assay
[2] = Kinetic solubility of compound; format: physicochemical; conditions: read-out: Kinetic_solubility
[3] = Lipophilicity, LogD of compound; format: physicochemical; conditions: octanol/water
[4] = target: T1, SWI/SNF-related matrix-associated actin-dependent regulator of chromatin subfamily A member 2 (Homo sapiens, UniProt P51531); experiment: Inhibition of SMARCA2 (unknown origin) by TR-FRET assay
[5] = target: T2, Protein polybromo-1 (Homo sapiens, UniProt Q86U86); experiment: Inhibition of PBRM1 bromodomain 5 (unknown origin) by TR-FRET assay
[6] = target: T3, SWI/SNF-related matrix-associated actin-dependent regulator of chromatin subfamily A member 4 (Homo sapiens, UniProt P51532); experiment: Binding affinity to His6/FLAG-tagged SMARCA4 (unknown origin) by isothermal titration calorimetric assay
[7] = target: T3, SWI/SNF-related matrix-associated actin-dependent regulator of chromatin subfamily A member 4; experiment: Binding affinity to human SMARCA4 (A1448 to S1575 residues) expressed in bacterial expression system by bromoscan assay
[8] = target: T1, SWI/SNF-related matrix-associated actin-dependent regulator of chromatin subfamily A member 2; experiment: Binding affinity to human SMARCA2 (S1337 to Q1486 residues) expressed in bacterial expression system by bromoscan assay
[9] = target: T2, Protein polybromo-1; experiment: Binding affinity to human PBRM1 bromodomain 5 (S645 to D766 residues) expressed in bacterial expression system by bromoscan assay
[10] = target: T2, Protein polybromo-1; experiment: Binding affinity to human PBRM1 bromodomain 2 (S178 to E291 residues) expressed in bacterial expression system by bromoscan assay
[11] = target: T3, SWI/SNF-related matrix-associated actin-dependent regulator of chromatin subfamily A member 4
[12] = target: Cytochrome P450 3A4 (Homo sapiens, UniProt P08684); experiment: Inhibition of CYP3A4 (unknown origin); format: ADME
[13] = target: T4, Cytochrome P450 2C8 (Homo sapiens, UniProt P10632); experiment: Inhibition of CYP2C8 (unknown origin); format: ADME
T4 sequence (P10632 whole entry): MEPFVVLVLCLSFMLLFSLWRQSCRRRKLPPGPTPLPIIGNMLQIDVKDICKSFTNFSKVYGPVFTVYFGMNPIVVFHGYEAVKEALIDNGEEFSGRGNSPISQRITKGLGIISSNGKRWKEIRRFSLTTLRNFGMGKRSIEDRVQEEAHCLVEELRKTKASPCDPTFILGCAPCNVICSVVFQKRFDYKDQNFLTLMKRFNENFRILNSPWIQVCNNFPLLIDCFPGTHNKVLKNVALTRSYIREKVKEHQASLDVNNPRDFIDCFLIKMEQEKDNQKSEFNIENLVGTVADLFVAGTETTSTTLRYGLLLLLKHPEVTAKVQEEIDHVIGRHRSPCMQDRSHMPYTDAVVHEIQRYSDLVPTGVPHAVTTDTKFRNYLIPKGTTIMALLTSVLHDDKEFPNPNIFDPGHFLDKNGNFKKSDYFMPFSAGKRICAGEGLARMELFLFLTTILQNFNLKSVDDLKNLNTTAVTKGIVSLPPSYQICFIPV

[14] = target: Cytochrome P450 2C19 (Homo sapiens, UniProt P33261); experiment: Inhibition of CYP2C19 (unknown origin); format: ADME
[15] = target: T5, Cytochrome P450 1A2 (Homo sapiens, UniProt P05177); experiment: Inhibition of CYP1A2 (unknown origin); format: ADME
T5 sequence (P05177 whole entry): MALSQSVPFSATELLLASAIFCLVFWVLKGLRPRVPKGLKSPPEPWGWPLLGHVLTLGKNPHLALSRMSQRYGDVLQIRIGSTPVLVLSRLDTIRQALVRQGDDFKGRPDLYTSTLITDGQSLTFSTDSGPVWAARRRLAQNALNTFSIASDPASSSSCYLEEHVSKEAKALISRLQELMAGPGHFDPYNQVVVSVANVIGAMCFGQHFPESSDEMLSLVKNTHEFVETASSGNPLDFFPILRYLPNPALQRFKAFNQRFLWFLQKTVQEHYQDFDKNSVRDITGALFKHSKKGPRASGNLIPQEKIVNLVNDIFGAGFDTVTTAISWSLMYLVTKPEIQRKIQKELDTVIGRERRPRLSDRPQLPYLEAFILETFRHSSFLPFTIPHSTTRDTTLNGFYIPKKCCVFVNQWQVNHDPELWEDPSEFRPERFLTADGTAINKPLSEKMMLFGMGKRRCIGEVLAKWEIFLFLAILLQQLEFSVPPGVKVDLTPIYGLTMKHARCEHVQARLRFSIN

[16] = target: Cytochrome P450 2C9 (Homo sapiens, UniProt P11712); experiment: Inhibition of CYP2C9 (unknown origin); format: ADME
[17] = target: Cytochrome P450 2D6 (Homo sapiens, UniProt P10635); experiment: Inhibition of CYP2D6 (unknown origin); format: ADME
[18] = Protein binding in mouse plasma; format: ADME, cell-free; conditions: read-out: PPB (converted)
[19] = Protein binding in rat plasma; format: ADME, cell-free; conditions: read-out: PPB (converted)
[20] = Protein binding in human plasma; format: ADME, cell-free; conditions: read-out: PPB (converted)
[21] = Clearance in CD-1 mouse at 0.5 mg/kg, iv; format: ADME, organism-based; conditions: in vivo
[22] = Unbound clearance in CD-1 mouse at 0.5 mg/kg, iv; format: ADME, organism-based; conditions: in vivo
[23] = Half life in CD-1 mouse at 0.5 mg/kg, iv; format: ADME, organism-based; conditions: in vivo
[24] = Volume of distribution at steady state in CD-1 mouse at 0.5 mg/kg, iv; format: ADME, organism-based; conditions: in vivo, read-out: Vdss
[25] = Unbound volume of distribution at steady state in CD-1 mouse at 0.5 mg/kg, iv; format: ADME, organism-based; conditions: in vivo
[26] = Cmax in CD-1 mouse at 1 mg/kg, po; format: ADME, organism-based; set-up: dose 1 mg/kg, route po; conditions: in vivo
[27] = Oral bioavailability in CD-1 mouse at 1 mg/kg; format: ADME, organism-based; conditions: in vivo
[28] = Tmax in CD-1 mouse at 1 mg/kg, po; format: ADME, organism-based; conditions: in vivo
[29] = Fraction unbound in CD-1 mouse at 1 mg/kg, po; format: ADME, organism-based; conditions: in vivo

T3 sequence (P51532 whole entry, the tested form may be a part): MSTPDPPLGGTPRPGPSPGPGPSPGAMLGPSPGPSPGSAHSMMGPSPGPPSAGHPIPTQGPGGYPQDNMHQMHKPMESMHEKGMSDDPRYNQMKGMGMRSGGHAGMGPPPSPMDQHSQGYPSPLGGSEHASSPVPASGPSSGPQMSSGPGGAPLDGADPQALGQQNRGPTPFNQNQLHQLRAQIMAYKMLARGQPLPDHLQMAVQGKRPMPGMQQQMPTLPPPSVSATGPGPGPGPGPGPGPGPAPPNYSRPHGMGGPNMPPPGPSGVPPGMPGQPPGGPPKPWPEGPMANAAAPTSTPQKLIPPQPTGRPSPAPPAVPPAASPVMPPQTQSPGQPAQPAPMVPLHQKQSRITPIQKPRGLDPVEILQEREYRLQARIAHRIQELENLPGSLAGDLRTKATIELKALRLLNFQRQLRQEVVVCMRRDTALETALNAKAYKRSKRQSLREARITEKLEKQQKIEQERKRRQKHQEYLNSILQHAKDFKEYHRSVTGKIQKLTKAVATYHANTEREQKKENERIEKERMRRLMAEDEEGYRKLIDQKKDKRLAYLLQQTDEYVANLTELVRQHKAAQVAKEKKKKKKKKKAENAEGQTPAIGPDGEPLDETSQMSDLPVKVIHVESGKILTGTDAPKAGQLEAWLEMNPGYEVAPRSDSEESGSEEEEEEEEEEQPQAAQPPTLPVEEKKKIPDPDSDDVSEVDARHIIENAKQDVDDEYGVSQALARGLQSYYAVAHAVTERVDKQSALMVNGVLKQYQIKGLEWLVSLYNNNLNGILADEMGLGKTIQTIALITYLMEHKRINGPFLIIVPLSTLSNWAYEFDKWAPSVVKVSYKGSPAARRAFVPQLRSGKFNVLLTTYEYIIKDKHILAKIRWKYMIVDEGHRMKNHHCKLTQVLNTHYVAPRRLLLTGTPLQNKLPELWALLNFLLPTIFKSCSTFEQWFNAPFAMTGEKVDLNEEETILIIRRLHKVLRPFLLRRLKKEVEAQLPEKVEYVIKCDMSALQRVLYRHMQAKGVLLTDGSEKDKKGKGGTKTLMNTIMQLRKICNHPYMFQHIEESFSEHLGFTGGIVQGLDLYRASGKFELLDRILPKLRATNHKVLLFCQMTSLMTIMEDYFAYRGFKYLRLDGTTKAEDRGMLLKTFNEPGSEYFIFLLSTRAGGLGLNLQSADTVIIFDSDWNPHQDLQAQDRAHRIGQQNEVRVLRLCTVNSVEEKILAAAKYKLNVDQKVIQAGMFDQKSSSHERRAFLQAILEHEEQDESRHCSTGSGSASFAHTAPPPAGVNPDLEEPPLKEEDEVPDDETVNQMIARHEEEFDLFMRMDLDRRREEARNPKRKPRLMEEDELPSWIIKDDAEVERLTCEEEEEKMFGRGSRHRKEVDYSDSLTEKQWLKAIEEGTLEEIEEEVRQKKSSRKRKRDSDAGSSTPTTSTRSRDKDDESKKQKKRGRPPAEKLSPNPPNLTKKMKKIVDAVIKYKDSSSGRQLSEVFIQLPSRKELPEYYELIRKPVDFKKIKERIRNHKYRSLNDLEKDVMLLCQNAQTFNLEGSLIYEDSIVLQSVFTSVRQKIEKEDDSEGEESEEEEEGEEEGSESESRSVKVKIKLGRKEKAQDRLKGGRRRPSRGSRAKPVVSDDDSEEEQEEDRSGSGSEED
T2 sequence (Q86U86 whole entry): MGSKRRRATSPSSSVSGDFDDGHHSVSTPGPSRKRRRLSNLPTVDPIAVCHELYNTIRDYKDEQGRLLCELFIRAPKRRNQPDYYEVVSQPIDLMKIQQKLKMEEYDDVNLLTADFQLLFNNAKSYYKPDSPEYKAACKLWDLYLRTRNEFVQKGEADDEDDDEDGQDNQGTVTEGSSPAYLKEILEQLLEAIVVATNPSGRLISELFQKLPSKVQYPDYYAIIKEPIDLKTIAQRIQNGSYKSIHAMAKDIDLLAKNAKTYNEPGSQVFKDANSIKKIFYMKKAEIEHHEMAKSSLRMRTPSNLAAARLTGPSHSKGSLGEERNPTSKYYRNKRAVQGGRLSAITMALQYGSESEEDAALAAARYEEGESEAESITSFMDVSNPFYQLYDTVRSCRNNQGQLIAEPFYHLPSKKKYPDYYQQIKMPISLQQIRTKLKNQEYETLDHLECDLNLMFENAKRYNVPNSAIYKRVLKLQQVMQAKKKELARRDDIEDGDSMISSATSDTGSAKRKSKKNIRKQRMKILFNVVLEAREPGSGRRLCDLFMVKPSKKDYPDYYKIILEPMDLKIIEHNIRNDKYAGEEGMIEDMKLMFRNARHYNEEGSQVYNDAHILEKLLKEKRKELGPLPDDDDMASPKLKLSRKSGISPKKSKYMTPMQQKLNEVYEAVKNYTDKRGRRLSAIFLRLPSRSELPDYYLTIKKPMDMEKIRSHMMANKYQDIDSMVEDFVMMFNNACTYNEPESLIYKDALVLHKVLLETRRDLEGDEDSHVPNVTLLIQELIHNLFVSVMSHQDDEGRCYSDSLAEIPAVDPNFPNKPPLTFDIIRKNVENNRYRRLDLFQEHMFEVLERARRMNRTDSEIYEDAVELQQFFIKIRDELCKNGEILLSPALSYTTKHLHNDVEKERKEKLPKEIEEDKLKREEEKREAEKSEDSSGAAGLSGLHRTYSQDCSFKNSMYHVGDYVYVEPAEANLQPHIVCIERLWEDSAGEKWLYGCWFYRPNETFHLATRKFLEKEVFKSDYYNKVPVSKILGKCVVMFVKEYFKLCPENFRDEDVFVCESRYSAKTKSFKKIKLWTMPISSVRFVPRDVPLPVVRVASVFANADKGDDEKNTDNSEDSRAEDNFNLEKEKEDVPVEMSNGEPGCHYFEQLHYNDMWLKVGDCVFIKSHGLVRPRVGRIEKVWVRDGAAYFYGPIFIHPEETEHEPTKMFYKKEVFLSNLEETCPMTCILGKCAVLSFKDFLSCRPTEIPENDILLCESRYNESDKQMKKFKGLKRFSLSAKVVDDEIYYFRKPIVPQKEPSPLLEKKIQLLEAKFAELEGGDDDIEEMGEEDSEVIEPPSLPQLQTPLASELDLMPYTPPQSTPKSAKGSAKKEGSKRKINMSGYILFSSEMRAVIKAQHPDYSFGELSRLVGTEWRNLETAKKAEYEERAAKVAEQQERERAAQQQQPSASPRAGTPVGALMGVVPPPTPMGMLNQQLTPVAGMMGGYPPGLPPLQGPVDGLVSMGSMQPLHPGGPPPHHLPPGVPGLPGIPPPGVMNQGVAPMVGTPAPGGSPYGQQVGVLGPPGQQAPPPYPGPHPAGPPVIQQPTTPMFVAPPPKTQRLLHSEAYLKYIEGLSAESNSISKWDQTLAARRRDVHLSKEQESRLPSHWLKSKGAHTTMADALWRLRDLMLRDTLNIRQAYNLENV
T1 sequence (P51531 whole entry): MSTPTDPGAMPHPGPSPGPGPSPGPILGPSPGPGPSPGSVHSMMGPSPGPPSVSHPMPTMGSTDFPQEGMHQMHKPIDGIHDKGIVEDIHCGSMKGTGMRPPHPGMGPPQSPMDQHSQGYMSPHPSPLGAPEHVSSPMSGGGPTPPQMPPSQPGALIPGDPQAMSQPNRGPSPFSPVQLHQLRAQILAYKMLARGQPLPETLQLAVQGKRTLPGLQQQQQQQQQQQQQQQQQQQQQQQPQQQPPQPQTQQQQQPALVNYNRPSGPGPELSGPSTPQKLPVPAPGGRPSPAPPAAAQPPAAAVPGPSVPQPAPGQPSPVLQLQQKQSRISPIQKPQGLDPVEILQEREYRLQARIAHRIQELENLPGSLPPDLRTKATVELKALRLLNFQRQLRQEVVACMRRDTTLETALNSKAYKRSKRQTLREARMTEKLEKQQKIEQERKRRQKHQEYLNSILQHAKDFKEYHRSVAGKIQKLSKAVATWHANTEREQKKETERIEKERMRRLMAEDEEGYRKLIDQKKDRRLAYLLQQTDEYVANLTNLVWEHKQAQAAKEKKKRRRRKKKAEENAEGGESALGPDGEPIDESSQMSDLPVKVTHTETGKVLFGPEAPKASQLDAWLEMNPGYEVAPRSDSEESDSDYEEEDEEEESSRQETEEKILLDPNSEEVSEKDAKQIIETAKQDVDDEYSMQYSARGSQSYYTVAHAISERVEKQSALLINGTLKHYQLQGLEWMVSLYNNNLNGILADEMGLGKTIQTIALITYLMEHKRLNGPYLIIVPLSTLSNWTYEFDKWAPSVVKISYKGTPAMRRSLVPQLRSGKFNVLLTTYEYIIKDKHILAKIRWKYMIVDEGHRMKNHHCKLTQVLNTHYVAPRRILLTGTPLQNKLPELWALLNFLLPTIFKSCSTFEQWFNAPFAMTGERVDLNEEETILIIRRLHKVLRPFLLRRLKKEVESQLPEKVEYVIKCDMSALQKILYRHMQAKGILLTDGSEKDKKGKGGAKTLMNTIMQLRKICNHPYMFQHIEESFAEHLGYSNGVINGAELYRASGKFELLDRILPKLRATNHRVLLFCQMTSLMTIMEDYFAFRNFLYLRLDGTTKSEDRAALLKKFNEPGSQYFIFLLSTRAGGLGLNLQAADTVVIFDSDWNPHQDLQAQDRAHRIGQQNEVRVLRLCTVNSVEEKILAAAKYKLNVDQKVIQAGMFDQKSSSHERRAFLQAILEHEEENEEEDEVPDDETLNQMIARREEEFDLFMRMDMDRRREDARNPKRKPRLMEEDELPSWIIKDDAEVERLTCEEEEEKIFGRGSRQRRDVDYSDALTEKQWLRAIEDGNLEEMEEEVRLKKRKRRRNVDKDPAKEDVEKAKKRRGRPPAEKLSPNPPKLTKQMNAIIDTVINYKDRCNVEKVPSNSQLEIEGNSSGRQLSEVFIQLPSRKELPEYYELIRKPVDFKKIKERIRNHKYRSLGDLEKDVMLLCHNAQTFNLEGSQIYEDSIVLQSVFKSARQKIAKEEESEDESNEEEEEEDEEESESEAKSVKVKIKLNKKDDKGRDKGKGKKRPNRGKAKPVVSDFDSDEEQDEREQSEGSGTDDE

Nc1nnc(-c2ccccc2O)cc1-c1ccccc1
pIC50 [1]: 4.57 | solubility kinetic [2]: 11 µM (≈ 2.9 µg/mL) | logD [3]: 3.3

Nc1nnc2c([nH]c3ccccc32)c1-c1ccccc1
pIC50 [4]: 5.37 | pIC50 [5]: 5.51 | pIC50 [1]: < 4.00 | pKd [6]: 5.46 | pKd [7]: 6.29 | pKd [8]: 6.47 | pKd [9]: 6.24 | pKd [10]: 6.77 | pIC50 [11]: 5.28

Nc1nnc(-c2ccccc2)cc1-c1ccccc1
pIC50 [1]: < 4.00 | pKd [7]: 5.00 | pKd [8]: 5.36 | pKd [9]: 4.57 | pKd [10]: 5.24 | pIC50 [11]: 4.24

CC(=O)N1CCN(c2cc(-c3ccccc3O)nnc2N)C[C@H]1C
pIC50 [1]: 4.47 | solubility kinetic [2]: 120 µM (≈ 39.3 µg/mL) | logD [3]: 2 | pIC50 [12]: < 5.00 | pIC50 [13]: < 5.00 | pIC50 [14]: < 5.00 | pIC50 [15]: < 5.00 | pIC50 [16]: < 5.00 | pIC50 [17]: < 5.00 | fraction unbound [18]: 0.31 | fraction unbound [19]: 0.41 | fraction unbound [20]: 0.24 | clearance [21]: 16 mL/min/kg | CL free [22]: 52 mL/min/kg | half-life [23]: 66 min | Vd [24]: 1 L/kg | Vduss [25]: 3.2 L/kg | Cmax [26]: 1000 nM | bioavailability [27]: 59% | Tmax [28]: 30 min | fraction unbound [29]: 0.31

Source: ChEMBL document CHEMBL5137085, “GNE-064: A Potent, Selective, and Orally Bioavailable Chemical Probe for the Bromodomains of SMARCA2 and SMARCA4 and the Fifth Bromodomain of PBRM1” (J Med Chem, 2022)
